Data as given in patent publication US11135234B2, “Effective aminoglycoside antibiotic for multidrug-resistant bacteria” (MICROBIAL CHEMISTRY RESEARCH FOUNDATION, priority 2015, dated 2021).
≈ marks a conversion by molar mass, not a printed value.

What was measured:
S. marcescens TH-0447 = assay: MIC, agar plate dilution method, S. marcescens TH-0447; type: cell-based, Serratia marcescens; conditions: for MIC: Serratia marcescens, TH0447, S. marcescens TH-0447, AMK-resistant, read-out: minimal inhibitory concentration (MIC); for minimal inhibitory concentration (MIC): S. marcescens TH-0447, AMK-resistant
Summary of the method: (§1)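 Minimal inhibitory concentration (μg/mL) was determined by agar plate dilution following the Japan Society of Chemotherapy method.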

[1] = test system: A. baumannii ATCC BAA-1710; assay: MIC, agar plate dilution method, A. baumannii ATCC BAA-1710; type: cell-based, Acinetobacter baumannii; conditions: for MIC: Acinetobacter baumannii, ATCCBAA1710, A. baumannii ATCC BAA-1710, MDRA, read-out: minimal inhibitory concentration (MIC); for minimal inhibitory concentration (MIC): A. baumannii ATCC BAA-1710, MDRA
Summary of the method: as §1

P. aeruginosa PAO1 = assay: MIC, agar plate dilution method, P. aeruginosa PAO1; type: cell-based, Pseudomonas aeruginosa; conditions: for MIC: Pseudomonas aeruginosa, PAO1, P. aeruginosa PAO1, Sensitive bacterium, read-out: minimal inhibitory concentration (MIC); for minimal inhibitory concentration (MIC): P. aeruginosa PAO1, Sensitive bacterium
Summary of the method: as §1

S. marcescens GN6944 = assay: MIC, agar plate dilution method, S. marcescens GN6944; type: cell-based, Serratia marcescens; conditions: S. marcescens GN6944, GM-resistant; for MIC: Serratia marcescens, read-out: minimal inhibitory concentration (MIC)
Summary of the method: as §1

P. aeruginosa MSC01035 = assay: MIC, agar plate dilution method, P. aeruginosa MSC01035; type: cell-based, Pseudomonas aeruginosa; conditions: P. aeruginosa MSC01035, ABK-resistant; for MIC: Pseudomonas aeruginosa, read-out: minimal inhibitory concentration (MIC)
Summary of the method: as §1

[2] = test system: K. pneumoniae ATCC BAA-2146; assay: MIC, agar plate dilution method, K. pneumoniae ATCC BAA-2146; type: cell-based, Klebsiella pneumoniae; conditions: for MIC: Klebsiella pneumoniae, ATCCBAA2146, K. pneumoniae ATCC BAA-2146, NDM-producing strain, read-out: minimal inhibitory concentration (MIC); for minimal inhibitory concentration (MIC): K. pneumoniae ATCC BAA-2146, NDM-producing strain
Summary of the method: as §1

P. aeruginosa MSC17707 = assay: MIC, agar plate dilution method, P. aeruginosa MSC17707; type: cell-based, Pseudomonas aeruginosa; conditions: for MIC: Pseudomonas aeruginosa, MSC17707, P. aeruginosa MSC17707, AMK-resistant, read-out: minimal inhibitory concentration (MIC); for minimal inhibitory concentration (MIC): P. aeruginosa MSC17707, AMK-resistant
Summary of the method: as §1

E. coli JM109/pMW218 = assay: MIC, agar plate dilution method, E. coli JM109/pMW218; type: cell-based, Escherichia coli; conditions: for MIC: Escherichia coli, JM109/PMW218, E. coli JM109/pMW218, Sensitive bacterium, read-out: minimal inhibitory concentration (MIC); for minimal inhibitory concentration (MIC): E. coli JM109/pMW218, Sensitive bacterium
Summary of the method: as §1

P. aeruginosa PAO1/GN315 = assay: MIC, agar plate dilution method, P. aeruginosa PAO1/GN315; type: cell-based, Pseudomonas aeruginosa; conditions: for MIC: Pseudomonas aeruginosa, read-out: minimal inhibitory concentration (MIC), P. aeruginosa PAO1/GN315, AMK-resistant; for minimal inhibitory concentration (MIC): P. aeruginosa PAO1/GN315, AMK-resistant
Summary of the method: as §1

S. aureus RN4220 = assay: MIC, agar plate dilution method, S. aureus RN4220; type: cell-based, Staphylococcus aureus; conditions: for MIC: Staphylococcus aureus, RN4220, S. aureus RN4220, Sensitive bacterium, read-out: minimal inhibitory concentration (MIC); for minimal inhibitory concentration (MIC): S. aureus RN4220, Sensitive bacterium
Summary of the method: as §1

[3] = test system: K. pneumoniae ATCC BAA-1705; assay: MIC, agar plate dilution method, K. pneumoniae ATCC BAA-1705; type: cell-based, Klebsiella pneumoniae; conditions: for MIC: Klebsiella pneumoniae, ATCCBAA1705, K. pneumoniae ATCC BAA-1705, KPC-producing strain, read-out: minimal inhibitory concentration (MIC); for minimal inhibitory concentration (MIC): K. pneumoniae ATCC BAA-1705, KPC-producing strain
Summary of the method: as §1

S. aureus MF490 = assay: MIC, agar plate dilution method, S. aureus MF490; type: cell-based, Staphylococcus aureus; conditions: for MIC: Staphylococcus aureus, MRSA, read-out: minimal inhibitory concentration (MIC); for minimal inhibitory concentration (MIC): S. aureus MF490, MRSA
Summary of the method: as §1

S. aureus RN4220/pMS520 = assay: MIC, agar plate dilution method, S. aureus RN4220/pMS520; type: cell-based, Staphylococcus aureus; conditions: for MIC: Staphylococcus aureus, MRSA, read-out: minimal inhibitory concentration (MIC), S. aureus RN4220/pMS520, MRSA; for minimal inhibitory concentration (MIC): S. aureus RN4220/pMS520, MRSA
Summary of the method: as §1

E. faecium ATCC19434 = assay: MIC, agar plate dilution method, E. faecium ATCC19434; type: cell-based, Enterococcus faecium; conditions: for MIC: Enterococcus faecium, ATCC19434, E. faecium ATCC19434, read-out: minimal inhibitory concentration (MIC); for minimal inhibitory concentration (MIC): E. faecium ATCC19434
Summary of the method: as §1

SMILES	MIC (S. marcescens TH-0447) [mg/L]	MIC [1] [mg/L]	MIC (P. aeruginosa PAO1) [mg/L]	MIC (S. marcescens GN6944) [mg/L]	MIC (P. aeruginosa MSC01035) [mg/L]	MIC [2] [mg/L]	MIC (P. aeruginosa MSC17707) [mg/L]	MIC (E. coli JM109/pMW218) [mg/L]	MIC (P. aeruginosa PAO1/GN315) [mg/L]	MIC (S. aureus RN4220) [mg/L]	MIC [3] [mg/L]	MIC (S. aureus MF490) [mg/L]	MIC (S. aureus RN4220/pMS520) [mg/L]	MIC (E. faecium ATCC19434) [mg/L]	minimal inhibitory concentration (MIC) (S. marcescens TH-0447) [mg/L]	minimal inhibitory concentration (MIC) [1] [mg/L]	minimal inhibitory concentration (MIC) (P. aeruginosa PAO1) [mg/L]	minimal inhibitory concentration (MIC) (S. marcescens GN6944) [mg/L]	minimal inhibitory concentration (MIC) (P. aeruginosa MSC01035) [mg/L]	minimal inhibitory concentration (MIC) [2] [mg/L]	also measured
CNC1C(O[C@H]2OC(CO)[C@@H](NC(=O)[C@@H](C)N)[C@H](O)C2O)O[C@H]2CC(N)[C@@H](O[C@@H]3C(N)C[C@@H](N)C(O)[C@H]3O)OC2C1O (stereo partly drawn) [Compound V1-d, 4″-N-(D-alanyl)apramycin]	16 (≈ 26.2 µM)	8 (≈ 13.1 µM)	4 (≈ 6.55 µM)	8 (≈ 13.1 µM)	8 (≈ 13.1 µM)	2 (≈ 3.28 µM)	8 (≈ 13.1 µM)	2 (≈ 3.28 µM)	8 (≈ 13.1 µM)	4 (≈ 6.55 µM)	2 (≈ 3.28 µM)	16 (≈ 26.2 µM)	4 (≈ 6.55 µM)	64 (≈ 105 µM)							
CNC1C(O[C@H]2OC(CO)[C@@H](NC(=O)[C@@H](N)CO)[C@H](O)C2O)O[C@H]2CC(N)[C@@H](O[C@@H]3C(N)C[C@@H](N)C(O)[C@H]3O)OC2C1O (stereo partly drawn) [Compound V1-e, 4″-N-(L-seryl)apramycin]	16 (≈ 25.5 µM)	16 (≈ 25.5 µM)	8 (≈ 12.8 µM)	8 (≈ 12.8 µM)	8 (≈ 12.8 µM)	2 (≈ 3.19 µM)	8 (≈ 12.8 µM)	2 (≈ 3.19 µM)	8 (≈ 12.8 µM)	8 (≈ 12.8 µM)	4 (≈ 6.38 µM)	32 (≈ 51.1 µM)	8 (≈ 12.8 µM)	64 (≈ 102 µM)							
CN[C@@H]1[C@@H](O[C@H]2O[C@H](CO)[C@@H](NC(=O)[C@H](N)CO)[C@H](O)[C@H]2O)O[C@H]2C[C@@H](N)[C@@H](O[C@H]3[C@H](O)[C@@H](O)[C@H](N)C[C@@H]3N)O[C@@H]2[C@@H]1O [Compound V1-f, 4″-N-(D-seryl)apramycin]															16 (≈ 25.5 µM)	8 (≈ 12.8 µM)	4 (≈ 6.38 µM)	16 (≈ 25.5 µM)	8 (≈ 12.8 µM)	2 (≈ 3.19 µM)	minimal inhibitory concentration (MIC) (P. aeruginosa MSC17707): 8 mg/L (≈ 12.8 µM); minimal inhibitory concentration (MIC) (E. coli JM109/pMW218): 2 mg/L (≈ 3.19 µM); minimal inhibitory concentration (MIC) (P. aeruginosa PAO1/GN315): 8 mg/L (≈ 12.8 µM); minimal inhibitory concentration (MIC) (S. aureus RN4220): 8 mg/L (≈ 12.8 µM); minimal inhibitory concentration (MIC) [3]: 4 mg/L (≈ 6.38 µM); minimal inhibitory concentration (MIC) (S. aureus MF490): 32 mg/L (≈ 51.1 µM); minimal inhibitory concentration (MIC) (S. aureus RN4220/pMS520): 8 mg/L (≈ 12.8 µM); minimal inhibitory concentration (MIC) (E. faecium ATCC19434): 64 mg/L (≈ 102 µM)
CNC1C(O[C@H]2OC(CO)[C@@H](NC(=O)CCN)[C@H](O)C2O)O[C@H]2CC(N)[C@@H](O[C@@H]3C(N)C[C@@H](N)C(O)[C@H]3O)OC2C1O (stereo partly drawn) [Compound V1-g, 4″-N-(β-alanyl)apramycin]	16 (≈ 26.2 µM)	8 (≈ 13.1 µM)	4 (≈ 6.55 µM)	8 (≈ 13.1 µM)	4 (≈ 6.55 µM)	1 (≈ 1.64 µM)	4 (≈ 6.55 µM)	1 (≈ 1.64 µM)	4 (≈ 6.55 µM)	4 (≈ 6.55 µM)	2 (≈ 3.28 µM)	8 (≈ 13.1 µM)	2 (≈ 3.28 µM)	32 (≈ 52.4 µM)							
CNC1C(O[C@H]2OC(CO)[C@@H](NC(=O)[C@@H](O)CN)[C@H](O)C2O)O[C@H]2CC(N)[C@@H](O[C@@H]3C(N)C[C@@H](N)C(O)[C@H]3O)OC2C1O (stereo partly drawn) [Compound V1-h, 4″-N-(L-isoseryl)apramycin]	16 (≈ 25.5 µM)	8 (≈ 12.8 µM)	16 (≈ 25.5 µM)	8 (≈ 12.8 µM)	4 (≈ 6.38 µM)	2 (≈ 3.19 µM)	4 (≈ 6.38 µM)	2 (≈ 3.19 µM)	8 (≈ 12.8 µM)	4 (≈ 6.38 µM)	2 (≈ 3.19 µM)	8 (≈ 12.8 µM)	4 (≈ 6.38 µM)	32 (≈ 51.1 µM)							
CNCC(=O)N[C@@H]1C(CO)O[C@H](OC2O[C@H]3CC(N)[C@@H](O[C@@H]4C(N)C[C@@H](N)C(O)[C@H]4O)OC3C(O)C2NC)C(O)[C@H]1O (stereo partly drawn) [Compound V1-j, 5-epi-4″-N-sarcosylapramycin]															8 (≈ 13.1 µM)	8 (≈ 13.1 µM)	2 (≈ 3.28 µM)	8 (≈ 13.1 µM)	4 (≈ 6.55 µM)	1 (≈ 1.64 µM)	minimal inhibitory concentration (MIC) (P. aeruginosa MSC17707): 2 mg/L (≈ 3.28 µM); minimal inhibitory concentration (MIC) (E. coli JM109/pMW218): 1 mg/L (≈ 1.64 µM); minimal inhibitory concentration (MIC) (P. aeruginosa PAO1/GN315): 4 mg/L (≈ 6.55 µM); minimal inhibitory concentration (MIC) (S. aureus RN4220): 2 mg/L (≈ 3.28 µM); minimal inhibitory concentration (MIC) [3]: 1 mg/L (≈ 1.64 µM); minimal inhibitory concentration (MIC) (S. aureus MF490): 4 mg/L (≈ 6.55 µM); minimal inhibitory concentration (MIC) (S. aureus RN4220/pMS520): 2 mg/L (≈ 3.28 µM); minimal inhibitory concentration (MIC) (E. faecium ATCC19434): 8 mg/L (≈ 13.1 µM)
